Reference: patent publication US12403114B2, “Cannabinoid acid ester compositions and uses thereof” (EPM (IP), INC., priority 2019, dated 2025)
Entries after “also recorded” stand apart in the source; their conditions may differ.

Legend:
[1] = system: Human hepatoma HepG2 cells; experiment: Fat accumulation in hepatocytes (Nile-Red); assay type: cell-based; details: 0.3 mM oleic:palmitic acids, 24 hr; EPM-301 effect at high (50 and 10 μM) and low (0.025 and 0.001 μM) concentrations, bell-shaped (FIG. 37, 38)
Protocol: An in vitro model of fat accumulation in hepatocytes was used to test whether compounds EPM-301 and EPM-302 have the ability to reduce lipid accumulation in hepatocytes Human hepatoma HepG2 cells were maintained at 37° C. in 5% CO2 in DMEM medium supplemented with 10% FCS, 2 mM 1-glutamine, 1 mM sodium pyruvate, 100 U/mL penicillin and […] streptomycin. Free fatty acids (2:1, molar ratio, oleic and palmitic acids) were mixed with bovine serum albumin (BSA). Cells were incubated with fatty acid-BSA complex in FCS-free culture medium at 0.3 mM final concentration of fatty acid and 1% of BSA. Control cell cultures were incubated with medium containing the vehicle. Compounds were tested in a range of concentrations in the presence of fatty acids. After 24 hr of incubation with the compounds, the cells were washed, incubated with 1 μg/mL mixture of Nile-Red/Hoechst solution for 15 mins at 37° C. protected from light. Fluorescence was measured by the Cytation-3 plate reader at ex:488 nm/em:550 nm and ex:350 nm/em:461 nm for Nile-Red and Hoechst, respectively. Results were normalized to total protein levels of each well, and presented as a change in the accumulation of lipids in comparison with Vehicle-treated group.
[…] EPM-301 at 50 μM was used as positive control.
Values are expressed as mean±SEM. […]

[2] = system: weight gain in rats with an adipogenic diet; experiment: Rat model of diet induced obesity (Teklad TD95217 adipogenic diet), weight gain; assay type: in vivo; details: 150 uL of 3.5 mg/ml i.p., each animal its own control (FIG. 33)
Protocol: The study was designed as a N-of-1 study, where each animal served as its own control. The advantage of this model is the elimination of the need for a control group and reduction of […] variation. The study was performed in two phases: a short-term study with one week exposure to EPM-301 and a long-term study with 8 weeks exposure to EPM-301 (injected daily). In the long-term study, a control group was used including animals fed the adipogenic diet.
EPM-301 was dissolved in 1:1:18 EtOH:cremophor:seline solution to final concentration of 3.5 mg/ml.
In the short-term experiment, all rats were injected i.p. 150 uL in the first day, and after a 3-day break were then injected i.p. every day for 4 days. In the long-term experiment i.p. injections of 150 uL were carried out daily for 8 weeks. Weight was measured at weeks 0, 1, 3, and 9 after injections.
The rats were weighed on a digital weight weekly in the short-term study for 3 weeks. The rats were weighed on weeks 0, 1, 3, and 9 in the long-term study.
Rats were allowed to acclimatize for 1 week, and then their weights were assessed using a digital weighing machine. Animals are fed an adipogenic diet for two weeks before starting injections.
The weights of the animals were compared at each time point and the change over time calculated. ANOVA was used to determine whether there was a significant change. […]

[3] = system: partial meniscectomy/ACL transection rat model of surgical induced osteoarthritis and pain induced incapacitance; experiment: Weight bearing (incapacitance tester) in rat partial meniscectomy/ACL transection model, Example 5; assay type: in vivo
Protocol: Rats were allowed to acclimatize for 1 week, followed by assessment of their weight bearing preference using an incapacitance meter. Unilateral medical meniscectomy and anterior cruciate ligament ligation (MMX/ACLT) surgery was performed on the right knee of a subject rat. Weight bearing preference was tested before and after surgery. After 2 weeks, treatments with both intra-articular (1) and. intra-peritoneal (6) administrations of EPM-301 began in the EPM-301 group. Weight bearing preference was then assessed 4 and 7 days after the start of therapy.
Wistar Rats (HsdHan female rats 225-249 grams) were acquired from Envigo. The rats were evaluated using an incapacitance tester. They were tested pre-operation, one-week post-operation, two weeks post-operation, prior to injection, 4 and 7 days post injections.
EPM-301 was dissolved in a solution mixture of 1:1:18 EtOH:cremophor:seline to a final concentration of 3.5 mg/mL.
Intra-articular (i.a.) injection was carried out with 100 uL and intra-peritoneal (i.p.) injections were carried out with 150 uL. All were injected i.a. in the first day. EPM-301 was injected via i.p. administration on the first day, and for 5 additional days everyday via i.p. administration.
Student's t-test was performed at the last follow-up time to determine effect of the therapy as primary endpoint. The level of significance was 0.05 alpha. ANOVA was used to compare all time points, a post-hob analysis with the Scheffe all comparisons method was performed. Calculations were performed using the Analyze-it Excel add-on function.
The percentage weight bearing was calculated as the amount of weight born (in grams) on the right hind limb divided by the amount of weight born on the left hind limb. The ratio was expressed as percentage weight bearing. There were 6 animals in the EPM-301 treated group and 4 animals in the control group.

With `C=C(C)[C@@H]1CCC(C)=CC1c1c(O)cc(CCCCC)c(C(=O)OC)c1O` (some centres unmarked) [EPM-301, cannabidiolic acid methyl ester] the “amount of fat accumulation in hepatocytes” value [1] was “significantly reduce; also recorded: ineffective”, the “weight gain, short-term study” value [2] was “halting” and the “Rt limb weight bearing” value ([3]; following injection, 3.5 mg/mL, 100 uL i.a. once plus 150 uL i.p. on 6 days, control group 59.0%) was 106.7%. The “weight bearing, average value” ([3]; immediately prior to injection, two weeks following model induction (baseline before treatment)) was 42.25% and the “Rt/Lt weight bearing, average value” ([3]; prior to operation (baseline of the group, before treatment)) was 139.6%.
